According to patent publication US20230136562A1, “SPIROUREA DERIVATIVES” (Idorsia Pharmaceuticals Ltd, priority 2020, published 2023):
Where two headings read alike, the source gives them in different places.

Test system: primary neuronal cultures from embryonic rat brains
Assay: Rat oscillation assay (FLIPR, neuronal calcium oscillations)
Format: cell-based
Procedure: A) Rat Oscillation Assay:
This assay is a functional phenotypic assay designed to mimic epileptic seizures using primary neuronal cultures from embryonic rat brains, which form a functional neuronal network that generate synchronized intracellular calcium concentration oscillations when cultured at high density in 384-well plate. The epileptic phenotype is induced by incubating the neurons in magnesium-free assay buffer, that results in increased probability of NMDA receptor activation, leading to an increased frequency and amplitude of intracellular calcium oscillations. Once neurons are incubated with the calcium indicator dye Fluo-8 AM (Tebu-bio), neuronal calcium oscillations can be monitored in real time using FLIPR® Tetra (fluorometric plate reader, Molecular Devices). With these recordings, the effect of anti-epileptic drugs can be quantified. The anti-epileptic effect of compounds, which activate directly or indirectly the Kv7 channels can be modulated by the Kv7 channel blocker XE-991. The assay was performed as described previously (Pacico N, Mingorance-Le Meur A. New In Vitro Phenotypic Assay for Epilepsy: Fluorescent Measurement of Synchronized Neuronal Calcium Oscillations. PLoS ONE 9(1) 2014) with modifications described hereafter.
Animal care followed standard procedures in accordance with swiss institutional guidelines. Dissociated neuronal cultures were obtained from cerebral cortices of embryonic Wistar rats at embryonic stage E18 (Charles River). The uterine horns were removed by caesarian surgery from deeply anesthetized rats (Isofurane) and sacrificed by decapitation. The embryos were decapitated by closing forceps. The brains were isolated and dissected one by one in ice-cold PBS (Life Technologies) under optical control using a binocular. Meninges, olfactory bulbs, and basal ganglia were removed. Cortical hemispheres (still including the hippocampus) were cut in small pieces with tweezers and placed on ice in pre-chilled Hibernate-E medium (Life technology). The hemispheres were then incubated in 10 mL of Hibernate-E containing 15 U/mL papain (Worthington) for 25 min at 30° C. with gentle mixing every 10 min. Genomic DNA was then digested by prolonging the incubation during 10 min at 37° C. in presence of 4 U/mL rDNase I (Ambion). The obtained suspension was then centrifuged at 800 g for 5 min and the cell pellet was resuspended in 2 mL Hibernate-E and gently dissociated by pipetting up and down 10 times with a plastic Pasteur pipette resulting in a homogenous cell suspension. This suspension was immediately filtered through a 70 µm cell strainer (MACS® SmartStrainer, Miltenyi), collected in 10 mL Hibernate-E and centrifuged at 800 g for 5 min. The cell pellet was resuspended in Neurobasal medium, supplemented with 2% B-27, 0.5 mM Glutamax-I, 100 U/mL penicillin, 100 µg/mL streptomycin (Life Technologies) and diluted at the final concentration of 300′000 cells/mL. One day before plating the cells, 384-well plates were coated with 25 μL/well of 0.1% poly-L-lysine solution (Sigma), incubated overnight at 37° C., washed two times with sterile distilled water and allowed to dry at room temperature for >2 h. The neurons were seeded at a density of 15′000 cells/well in 50 μL/well in a 384-well black, clear-bottomed plates (Corning) and subsequently maintained in an incubator at 37° C., 5% CO2 and 95% humidity for 8 to 10 days. After 3 and 7 days, 40% of media was renewed under sterile conditions.
Protocol Rat Oscillation Assay
Neurons seeded in the assay plates were washed with Hank's balanced salt solution (HBSS) devoid of Ca^2+ and Mg^2+, supplemented with 20 mM HEPES (Life Technologies) and 2 mM CaCl2 (Sigma), pH 7.4 (hereafter called Assay buffer) using a Biotek EL406 plate washer. Neurons were loaded with 1 μM Fluo-8 AM in Assay buffer for 15 min at 37° C., 5% CO2. […]

[1] = Rattus norvegicus, 20 min, AUC of fluorescence measured 20 min after compound addition, read-out: FLIPR: IC50 [nM] 20 min
[2] = Rattus norvegicus, Acute phase, ratio of AUC fluorescence before and after compound addition, read-out: FLIPR: IC50 [nM] acute
[3] = AUC of fluorescence measured 20 min after compound addition, read-out: FLIPR: IC50 [nM] 20 min
[4] = Acute phase, ratio of AUC fluorescence before and after compound addition, read-out: FLIPR: IC50 [nM] acute

Compound	IC50 [1] [nM]	IC50 [2] [nM]	IC50 [3] [nM]	IC50 [4] [nM]	activity compared with the (R) enantiomer (assay not given)
COCC(NC(=O)NC1CC2(CC2)C1)c1cccc(C(F)(F)F)c1 (racemic) [Example 147, (±)-1-[2-Methoxy-1-(3-trifluoromethyl-phenyl)-ethyl]-3-spiro[2.3]hex-5-yl-urea]	23	18	–	–	–
O=C(NCc1cccc(C(F)(F)F)c1F)NC1CC2(CCC2)C1 [Example 12, 1-(2-Fluoro-3-trifluoromethyl-benzyl)-3-spiro[3.3]hept-2-yl-urea]	55	36	–	–	–
COc1c(C(C)NC(=O)NC2CC3(CC3)C2)cccc1C(F)(F)F (racemic) [Example 133, (±)-1-[1-(2-Methoxy-3-trifluoromethyl-phenyl)-ethyl]-3-spiro[2.3]hex-5-yl-urea]	670	396	–	–	–
O=C(NCc1cccc(C(F)(F)F)c1F)NC1CC2(CC2)C1 [Example 149, 1-(2-Fluoro-3-trifluoromethyl-benzyl)-3-spiro[2.3]hex-5-yl-urea]	103	98	–	–	–
O=C(NC1CC2(CC2)C1)NC(CCO)c1cccc(OC(F)(F)F)c1 (racemic) [Example 138, (±)-1-[3-Hydroxy-1-(3-trifluoromethoxy-phenyl)-propyl]-3-spiro[2.3]hex-5-yl-urea]	92	60	–	–	–
O=C(NCc1cccc(C(F)(F)F)c1)NC1CC2(C1)CC2(F)F (single isomer, unassigned) [Example 4, 1-(1,1-Difluoro-spiro[2.3]hex-5-yl)-3-(3-trifluoromethyl-benzyl)-urea]	–	–	152	175	–
CC(Oc1nccc(CNC(=O)NC2CC3(CCC3)C2)n1)C(F)(F)F (single isomer, unassigned) [Example 180, 1-Spiro[3.3]hept-2-yl-3-[2-(-2,2,2-trifluoro-1-methyl-ethoxy)-pyrimidin-4-ylmethyl]-urea]	–	–	78	62	–
CN(C)CC(NC(=O)NC1CC2(CCC2)C1)c1ccnc(OCC(F)(F)F)c1 (racemic) [Example 94, (±)-1-{2-Dimethylamino-1-[2-(2,2,2-trifluoro-ethoxy)-pyridin-4-yl]-ethyl}-3-spiro[3.3]hept-2-yl-urea]	117	197	–	–	–
CC(NC(=O)NC1CC2(CC2)C1)c1cccc(OC(F)F)c1 (racemic) [Example 124, (±)-1-[1-(3-Difluoromethoxy-phenyl)-ethyl]-3-spiro[2.3]hex-5-yl-urea]	280	69	–	–	–
O=C(NC1CC2(CCC2)C1)NC(CC(F)F)c1cccc(C(F)(F)F)c1 (racemic) [Example 84, (±)-1-[3,3-Difluoro-1-(3-trifluoromethyl-phenyl)-propyl]-3-spiro[3.3]hept-2-yl-urea]	4.2	5.1	–	–	–
C[C@H](NC(=O)NC1CC2(CCC2)C1)c1cc(C(F)(F)F)ccc1Br (single isomer, unassigned) [Example 190]	200	286	–	–	more active than the (R) enantiomer
O=C(NC1CC2(CCC2)C1)NC(CO)c1cccc(OCC(F)(F)F)c1 (racemic) [Example 87, (±)-1-{2-Hydroxy-1-[3-(2,2,2-trifluoro-ethoxy)-phenyl]-ethyl}-3-spiro[3.3]hept-2-yl-urea]	12	21	–	–	–
NC(=O)C(NC(=O)NC1CC2(CCC2)C1)c1cccc(C(F)(F)F)c1 (racemic) [Example 62, (±)-2-(3-Spiro[3.3]hept-2-yl-ureido)-2-(3-trifluoromethyl-phenyl)-acetamide]	65	50	–	–	–
O=C(NCc1cccc(OC(F)(F)F)c1F)NC1CC2(CC2)C1 [Example 134, 1-(2-Fluoro-3-trifluoromethoxy-benzyl)-3-spiro[2.3]hex-5-yl-urea]	82	63	–	–	–
COc1ccc(C(C)NC(=O)NC2CC3(CCC3)C2)cc1OCC(F)(F)F (racemic) [Example 28, (±)-1-{1-[4-Methoxy-3-(2,2,2-trifluoro-ethoxy)-phenyl]-ethyl}-3-spiro[3.3]hept-2-yl-urea]	600	629	–	–	–
